Measured values reported in PubChem BioAssay AID248 (DTP/NCI, 2004).
Values joined by “and” are separate entries in the source; they are usually repeats but may differ in a detail not shown here. Equal entries are not always repeated. Toxic doses and inconclusive results are not listed. Rule as the data show it: active = T/C of 150% or more; inactive = T/C below 125%.

System: L1210 leukemia ip in BDF1 mice, survival T/C
Assay: NCI In Vivo Anticancer Drug Screen. Data for tumor model L1210 Leukemia (intraperitoneal) in B6D2F1 (BDF1) mice
Conditions: endpoint: mean survival time, higher = longer survival
Summary of the method: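 In this screen, tumor-bearing mice given compound are compared to those given vehicle, and their survival values are reported as a treated-to-control quotient.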

[1] = dose: 100.0 mg/kg/injection, schedule: Q01DX001 (ip), vehicle: Klucel (hydroxypropylcellulose) (HPC)
[2] = dose: 200.0 mg/kg/injection, schedule: Q01DX001 (ip), vehicle: Klucel (hydroxypropylcellulose) (HPC)
[3] = dose: 400.0 mg/kg/injection, schedule: Q01DX001 (ip), vehicle: Klucel (hydroxypropylcellulose) (HPC)
[4] = dose: 100.0 mg/kg/injection, schedule: Q01DX001 (ip), vehicle: saline
[5] = dose: 200.0 mg/kg/injection, schedule: Q01DX001 (ip), vehicle: saline
[6] = dose: 400.0 mg/kg/injection, schedule: Q01DX001 (ip), vehicle: saline
[7] = dose: 75.0 mg/kg/injection, schedule: Q01DX001 (ip), vehicle: other
[8] = dose: 150.0 mg/kg/injection, schedule: Q01DX001 (ip), vehicle: other
[9] = dose: 300.0 mg/kg/injection, schedule: Q01DX001 (ip), vehicle: other
[10] = dose: 100.0 mg/kg/injection, schedule: Q01DX001 (ip), vehicle: carboxymethylcellulose (CMC)
[11] = dose: 200.0 mg/kg/injection, schedule: Q01DX001 (ip), vehicle: carboxymethylcellulose (CMC)
[12] = dose: 400.0 mg/kg/injection, schedule: Q01DX001 (ip), vehicle: carboxymethylcellulose (CMC)
[13] = dose: 100.0 mg/kg/injection, schedule: Q04DX003 (ip), vehicle: saline
[14] = dose: 200.0 mg/kg/injection, schedule: Q04DX003 (ip), vehicle: saline
[15] = dose: 100.0 mg/kg/injection, schedule: Q01DX009 (ip), vehicle: Klucel (hydroxypropylcellulose) (HPC)
[16] = dose: 200.0 mg/kg/injection, schedule: Q01DX009 (ip), vehicle: Klucel (hydroxypropylcellulose) (HPC)
[17] = dose: 400.0 mg/kg/injection, schedule: Q01DX009 (ip), vehicle: Klucel (hydroxypropylcellulose) (HPC)
[18] = dose: 50.0 mg/kg/injection, schedule: Q01DX001 (ip), vehicle: carboxymethylcellulose (CMC)

Measured: T/C

Cc1ccc2c(c1)C(c1ccccc1)=C(NC1CCCCC1)C2=O
inactive: [1] 87 % of control | [2] 91 % of control | [3] 92 % of control

COC1OCC(OC(C)=O)C(NC(C)=O)C1OC(C)=O (configuration not stated)
inactive: [4] 100 % of control | [5] 101 % of control | [6] 111 % of control

O=C1OCCOC1=O
inactive: [7] 90 % of control | [8] 95 % of control | [9] 95 % of control

CCS(=O)(=O)c1ccc(NC(=O)OC(C)(c2ccccc2)C2CCCCC2)cc1 (configuration not stated)
inactive: [10] 96 % of control | [11] 91 % of control | [12] 100 % of control

Nc1nc(N)c(N=Nc2c(Br)cc(S(N)(=O)=O)cc2Br)c(N)n1
inactive: [10] 94 % of control | [11] 94 % of control | [12] 100 % of control

O=C(COc1cc2ccccc2cc1C(=O)O)NCc1ccc(Cl)cc1
inactive: dose: 25.0 mg/kg/injection, schedule: Q04DX003 (ip), vehicle: saline 96 % of control | dose: 50.0 mg/kg/injection, schedule: Q04DX003 (ip), vehicle: saline 100 % of control | [13] 101 % of control | [14] 101 % of control

Nc1nc(N)c(C=Nc2ccc(I)cc2)c(Nc2ccc(I)cc2)n1
inactive: dose: 400.0 mg/kg/injection, schedule: Q01DX001 (ip), vehicle: alcohol 86 % of control

O=C(C1CC1c1ccccc1)N1CCN(c2ccccc2)CC1 (configuration not stated)
inactive: [15] 98 % of control | [16] 90 % of control | [17] 100 % of control

COC(=O)c1ccc(O)c(Cl)c1
inactive: [10] 96 % of control | dose: 100.0 mg/kg/injection, schedule: Q01DX009 (ip), vehicle: carboxymethylcellulose (CMC) 96 % of control | dose: 100.0 mg/kg/injection, schedule: Q04DX002 (ip), vehicle: carboxymethylcellulose (CMC) 103 % of control and 90 % of control | dose: 100.0 mg/kg/injection, schedule: Q04DX003 (ip), vehicle: carboxymethylcellulose (CMC) 97 % of control and 105 % of control | [11] 97 % of control | dose: 200.0 mg/kg/injection, schedule: Q01DX009 (ip), vehicle: carboxymethylcellulose (CMC) 92 % of control | dose: 200.0 mg/kg/injection, schedule: Q04DX002 (ip), vehicle: carboxymethylcellulose (CMC) 105 % of control and 90 % of control | dose: 200.0 mg/kg/injection, schedule: Q04DX003 (ip), vehicle: carboxymethylcellulose (CMC) 100 % of control and 91 % of control | [12] 91 % of control | dose: 400.0 mg/kg/injection, schedule: Q01DX009 (ip), vehicle: carboxymethylcellulose (CMC) 96 % of control | dose: 400.0 mg/kg/injection, schedule: Q04DX002 (ip), vehicle: carboxymethylcellulose (CMC) 97 % of control | dose: 400.0 mg/kg/injection, schedule: Q04DX003 (ip), vehicle: carboxymethylcellulose (CMC) 102 % of control and 103 % of control

Sc1ccccc1-n1c(-c2ccccc2)ccc1-c1ccccc1
inactive: dose: 50.0 mg/kg/injection, schedule: Q01DX001 (ip), vehicle: saline 96 % of control | [4] 93 % of control | [5] 98 % of control | [6] 87 % of control

O=C(O)c1c[nH]c2c(C(F)(F)F)cccc2c1=O
inactive: [18] 88 % of control | [10] 98 % of control | [11] 88 % of control | [12] 90 % of control

CC(C)(N)CN
inactive: [4] 96 % of control | [5] 96 % of control | [6] 94 % of control

CN(C)CCc1ccccc1OC1CCCC1
inactive: [7] 101 % of control | [8] 102 % of control | [9] 101 % of control

OC(CN1CCCCC1)c1ccc(/C=C/c2ccc(Cl)cc2)cc1 (configuration not stated)
inactive: dose: 6.25 mg/kg/injection, schedule: Q01DX009 (ip), vehicle: saline with Tween-80 101 % of control | dose: 6.25 mg/kg/injection, schedule: Q04DX003 (ip), vehicle: saline with Tween-80 93 % of control | dose: 12.5 mg/kg/injection, schedule: Q01DX009 (ip), vehicle: saline with Tween-80 93 % of control | dose: 12.5 mg/kg/injection, schedule: Q04DX003 (ip), vehicle: saline with Tween-80 88 % of control | dose: 25.0 mg/kg/injection, schedule: Q04DX003 (ip), vehicle: saline with Tween-80 98 % of control and 87 % of control | dose: 100.0 mg/kg/injection, schedule: Q01DX001 (ip), vehicle: saline with Tween-80 88 % of control

CC12CCCCC1=CC(OC(=O)c1ccc([N+](=O)[O-])cc1)CC2 (configuration not stated)
inactive: dose: 50.0 mg/kg/injection, schedule: Q01DX009 (ip), vehicle: saline with Tween-80 94 % of control | dose: 100.0 mg/kg/injection, schedule: Q01DX009 (ip), vehicle: saline with Tween-80 98 % of control | dose: 200.0 mg/kg/injection, schedule: Q01DX009 (ip), vehicle: saline with Tween-80 94 % of control

O=C(/C=C/c1ccccc1)NN1CCOCC1
inactive: dose: 75.0 mg/kg/injection, schedule: Q01DX009 (ip), vehicle: Klucel (hydroxypropylcellulose) (HPC) 92 % of control | dose: 150.0 mg/kg/injection, schedule: Q01DX009 (ip), vehicle: Klucel (hydroxypropylcellulose) (HPC) 108 % of control | dose: 300.0 mg/kg/injection, schedule: Q01DX009 (ip), vehicle: Klucel (hydroxypropylcellulose) (HPC) 115 % of control

O=C1c2ccccc2C(=O)C2C3C=CC(CC3)C12 (configuration not stated)
inactive: [18] 100 % of control | [10] 97 % of control | [11] 97 % of control | [12] 97 % of control

COc1ccc(/C=C2\NC(=O)NC2=O)cc1
inactive: [4] 98 % of control | [5] 93 % of control | [6] 95 % of control

O=C(O)c1ccc(NC(c2ccccc2)c2ccc3cccnc3c2O)cc1 (configuration not stated)
inactive: [4] 86 % of control | [5] 89 % of control | [6] 86 % of control

O=c1cccc[nH]1
inactive: dose: 25.0 mg/kg/injection, schedule: Q01DX009 (ip), vehicle: saline 100 % of control | dose: 45.0 mg/kg/injection, schedule: Q01DX009 (ip), vehicle: saline 91 % of control | dose: 50.0 mg/kg/injection, schedule: Q01DX009 (ip), vehicle: saline 106 % of control and 93 % of control | dose: 65.0 mg/kg/injection, schedule: Q01DX009 (ip), vehicle: saline 104 % of control | dose: 100.0 mg/kg/injection, schedule: Q01DX009 (ip), vehicle: saline 96 % of control and 110 % of control and 91 % of control | dose: 100.0 mg/kg/injection, schedule: Q04DX002 (ip), vehicle: saline 95 % of control | [13] 91 % of control | dose: 150.0 mg/kg/injection, schedule: Q01DX009 (ip), vehicle: saline 102 % of control | dose: 200.0 mg/kg/injection, schedule: Q01DX009 (ip), vehicle: saline 109 % of control and 110 % of control | dose: 200.0 mg/kg/injection, schedule: Q04DX002 (ip), vehicle: saline 100 % of control | [14] 91 % of control | dose: 400.0 mg/kg/injection, schedule: Q04DX003 (ip), vehicle: saline 92 % of control

Cc1ccc(S(=O)(=O)OCC(=O)O)cc1
inactive: dose: 100.0 mg/kg/injection, schedule: Q04DX003 (ip), vehicle: saline with Tween-80 95 % of control | dose: 200.0 mg/kg/injection, schedule: Q04DX003 (ip), vehicle: saline with Tween-80 95 % of control | dose: 400.0 mg/kg/injection, schedule: Q04DX003 (ip), vehicle: saline with Tween-80 100 % of control

COc1cc([N+](=O)[O-])cc(OC)c1OC
inactive: [1] 95 % of control | [2] 92 % of control | [3] 97 % of control

N#CCSc1nc(N)nc2nc[nH]c12
inactive: dose: 62.5 mg/kg/injection, schedule: Q01DX Z (ip), vehicle: methylcellulose (MC) 101 % of control | dose: 125.0 mg/kg/injection, schedule: Q01DX Z (ip), vehicle: methylcellulose (MC) 105 % of control

O=C(Nc1ccccc1)Nc1ccc([N+](=O)[O-])cc1
inactive: [15] 91 % of control | dose: 100.0 mg/kg/injection, schedule: Q04DX003 (ip), vehicle: other 93 % of control | [16] 96 % of control | dose: 200.0 mg/kg/injection, schedule: Q04DX003 (ip), vehicle: other 100 % of control | [17] 86 % of control | dose: 400.0 mg/kg/injection, schedule: Q04DX003 (ip), vehicle: other 100 % of control
